Results from patent US20120225093A1, “Abrogating HIV-1 Infection via Drug-Induced Reactivation of Apoptosis” (UNIVERSITY OF MEDICINE AND DENTISTRY OF NEW JERSEY, priority 2010, published 2012).

Key:
[1] = tested on: H9-HIV cells; assay: Intracellular cellular and retroviral proteins by flow cytometry in H9-HIV cells; assay type: cell-based
Experimental: Intracellular antigens were determined, as geometric means of fluorescence, by flow cytometric analysis using a BD FACSCalibur™ and its BD FACStation System™ (Becton Dickinson; San Jose, Calif.). Intracellular antigens were stained according to the instrument producer's instructions.
CD4+ T cells isolated from infected individuals have increased Bcl-2 levels compared to uninfected lymphocytes and some reports implicate HIV-1 Tat in preventing apoptosis in persistently infected cells by inducing the transcription of Bcl-2. Since CPX blocks HIV-1 gene expression, Bcl-2 expression in H9 and H9-HIV cells was determined. […] Retroviral proteins can also control apoptosis. Therefore, assays were carried out to measure the response of individual retroviral proteins in H9-HIV (FIG. 10C) to the shut-down of the HIV-1 promoter by CPX. […] Vpr induces apoptosis via caspase-3 activation.

[2] = tested on: HIV-1 RNA; assay: RNase protection assay of HIV RNA from molecular clones in 293T cells; assay type: cell-based; conditions: for accumulation of FF mRNA: pNL4-3-LucE- in 293T; for reduction of spliced and unspliced HIV RNAs: pNL4-3-LucE-, cytoplasmic and nuclear fractions, 12 hr
Experimental: 293T cells (2×10^6 cells) were seeded in 10-cmdiameter plates and transfected 20 hr later by using Transfectene (Bio-Rad) and treated with compounds. Cells were harvested at 15 hr post-transfection and suspended in a low salt buffer (10 mM Tris.HCl pH 7.4, 10 mM NaCl, 1.5 mM MgCl2, and 0.5% NP-40). Cells were vortexed for 10 sec and incubated on ice for 10 min. Cell extracts were centrifuged at 500×g for 3 min, followed by cytoplasmic and nuclear RNA isolation from the supernatant and the pellet, respectively, using Trizol (Invitrogen) according to the manufacturer's instructions.
RPA was performed with 10 μg of cytoplasmic RNA and 5 μg of nuclear RNA, using the RPAIII kit from Ambion (Austin, Tex.) according to the manufacturer's instructions. Synthesis of radiolabeled RNA and protection assays were performed as described in Young et al. Mol Cell Biol 2003, 23:6373-6384. To generate antisense RNA probe against the HIV-1 major splice site, firefly luciferase and Renilla luciferase pBSII-KS+HIV (+80-341), pSP-luc and pSP-rluc were linearized with HindIII, XbaI and BsaI, respectively. The resulting probes were 309, 390 and 245 nt long, respectively. The antisense HIV-1 leader RNA probe complementary to nt+83 to −117 of the LTR was generated by subcloning between the XbaI and HindIII sites of the pcDNA3.1 vector. Antisense probe corresponding to the N terminus of eIF5A was generated by subcloning 250 nt of its cDNA sequence into pcDNA3.1.
Next, the effects of CPX and DEF on viral mRNA expression were examined. […] To determine whether the action of CPX and DEF is exerted at the level of the accumulation, splicing or nucleo-cytoplasmic distribution of HIV RNA, pNL4-3-LucE- was transfected into 293T cells and monitored spliced and unspliced HIV RNA after drug treatment. RNase protection assays were carried out using a probe complementary to the 5′ region of all HIV-1 transcripts (Zheng et al. Nat Cell Biol 2003, 5:611-618). The probe spans the major splice donor site so two sizes of protected fragments are generated: unspliced RNA protects an RNA fragment 50 nucleotides (nt) longer than that from spliced RNAs (FIG. 4A). CPX and DEF, but not P2, reduced the level of both spliced and unspliced RNAs by ˜50% (FIG. 4B). […] In contrast, the production of Renilla luciferase RNA driven by the CMV promoter was unchanged in the nucleus and cytoplasm after drug treatment (FIG. 4B). […]
The rev-defective molecular clone pMRev(−) contains the entire HIV-1 genome but Rev expression is prevented by substitutions in its initiation codon. To compare the inhibitory effect of CPX and DEF in the presence and absence of Rev, cells were transfected with pMRev(−), either with or without a Rev expression vector, and RNA was analyzed by RPA as above. […]

[3] = human, in vivo, cited from earlier work
[4] = tested on: 293T cells; assay: Apoptosis and viability of untransfected 293T cells (annexin V / 7AAD); assay type: cell-based, human; conditions: within 24 hr at concentrations used
Experimental: The cells were grown in DME medium (Sigma) and Jurkat cells in RPMI medium (Sigma), both supplemented with penicillin, streptomycin and 8% FBS. Quantitation of apoptosis and viability was performed with a BD FACSCalibur™ system using Annexin V-PE Apoptosis Detection Kit I (BD Biosciences, San Jose Calif.).

[5] = tested on: HIV p24; assay: p24 expression from pNL4-3-LucE- molecular clone in 293T cells; assay type: cell-based, HIV-1; conditions: 293T cell extract; 12 hr post-transfection
Experimental: FIGS. 3A-D are a set of diagrams and photographs showing drug effects on luciferase expression from an HIV-1 molecular clone. A. Comparison of drug effects on luciferase expression from the pNL4-3-LucE- molecular clone in 293T cells. The molecular clone pNL4-3-LucE- and pCMV-Ren were transfected into 293T cells. Drugs were added where indicated at the following concentrations: P2 (30 μM), CPX (30 μM), DEF (250 μM), or DFOX (15 μM). Dual luciferase assays were conducted at 12 hr post-transfection. Firefly (FF) luciferase expression was normalized to Renilla luciferase (Ren) from pCMV-Ren (mean of 2 experiments in duplicate, ±SD). B. Expression in Jurkat cells was assayed essentially as in panel A. C. Firefly and Renilla luciferase RNA expression was analyzed in 293T cells treated as in panel A by RPA using 32P-[UTP] labeled antisense RNA probes corresponding to the C-termini of the FF and Ren luciferase mRNAs. D. Comparison of drug effects on p24 expression from the pNL4-3-LucE- molecular clone in 293T cells. Drugs were added where indicated to the same concentrations as in A. p24 levels were determined in cell extract at 12 hr post-transfection.
p24 core antigen in the supernatant was quantified by ELISA (Retrotek HIV-1 p24™; ZeptoMetrix Corp.; Buffalo, N.Y.). HIV-1 RNA copy number in the supernatant was determined with a PCR-based and FDA-approved assay (Amplicor HIV-1 Monitor™; Roche Diagnostics Corp.; Indianapolis, Ind.). IFN-γ and IL-10 in the supernatant were determined by cytometric bead array (Human Th1/Th2 Cytokine Kit II™; BD Biosciences Pharmingen, San Jose, Calif.).

SMILES | active caspase-3 ([1]; 30 μM CPX, 24 and 48 hr) | intracellular Rev ([1]; 30 μM CPX, 24 and 48 hr) | intracellular Tat ([1]; 30 μM CPX, 24 and 48 hr) | increase of Vpr level ([1]; 30 μM CPX, within 24 hr) [%] | reduction of intracellular p24 ([1]; 30 μM CPX, within 24 hr) [%] | increase of Vpr level ([1]; 30 μM CPX, within 48 hr) [%] | reduction of intracellular p24 ([1]; 30 μM CPX, within 48 hr) [%] | dose-dependent change in Bcl-2 content ([1]; 24 hr, H9 and H9-HIV) | cells positive for Bcl-2 ([1]; CPX 24 hr, irrespective of infection (H9 and H9-HIV)) [%] | accumulation of FF mRNA [2] | reduction of spliced and unspliced HIV RNAs [2] [%] | systemic absorption [3] | 293T cell death [4] | inhibition of HIV p24 expression from the molecular clone [5] [%] | response of retroviral proteins Rev, p24, Tat, Vpr ([1]; DEF) | concentration in serum ([3]; po) [µM] | plasma levels ([3]; po)
Cc1cc(C2CCCCC2)n(O)c(=O)c1 [CPX, 6-cyclohexyl-1-hydroxy-4-methylpyridin-2[1H]-one] | the increase in Vpr paralleled that of active caspase-3 | only marginally affected | similarly reduced | ~15 | 30 | ~70 | 70 | neither of these measures achieved statistical significance | ~35 | decreased accumulation of FF mRNA | ~50 | miniscule systemic absorption | marginal 293T cell death | ~60 | – | – | –
Cc1c(O)c(=O)ccn1C [DEF, 3-hydroxy-1,2-dimethylpyridin-4(1H)-one] | – | – | – | – | – | – | – | – | – | decreased accumulation of FF mRNA | ~50 | – | marginal 293T cell death | ~60 | sparing Rev, decreasing p24 and Tat, and increasing Vpr | ≥ 250 | up to 350 μM
